According to article PMC4771075 (Journal of medicinal chemistry, 2015):
Values joined by “and” are separate entries in the source; they are usually repeats but may differ in a detail not shown here. Equal values may be shown once. Read-outs that look alike come from different tables or passages of the source. Square brackets hold non-standard residues; d marks the D form. * marks the point of attachment. Dap = NC[C@H](N)C(=O)O; Bn = c1ccc(C*)cc1

How the values were obtained:
[1] = target: kappa opioid receptor (KOR) (Rattus norvegicus, UniProt P34975); assay: biochemical; assay type: binding
KOR [2] = target: T1, KOR (Rattus norvegicus, UniProt P34975); conditions: after a single dose; cited from earlier work
[3] = test system: stress-induced reinstatement of cocaine seeking behavior; conditions: mice, s.c. administration; cited from earlier work
mu opioid receptor (MOR) = mu opioid receptor (MOR) (Rattus norvegicus, UniProt P33535); assay: Radioligand binding assay, MOR
KOR [4] = target: T1, KOR; assay: Agonist stimulated [^35S]GTPγS binding assay, agonist efficacy; assay type: biochemical
KOR [5] = target: T1, KOR; assay: Schild analysis against Dyn A; assay type: biochemical
KOR [6] = target: T1, KOR; conditions: read-out: KOR Ki found previously; cited from earlier work

Sequence of mu opioid receptor (MOR) (P33535 whole entry): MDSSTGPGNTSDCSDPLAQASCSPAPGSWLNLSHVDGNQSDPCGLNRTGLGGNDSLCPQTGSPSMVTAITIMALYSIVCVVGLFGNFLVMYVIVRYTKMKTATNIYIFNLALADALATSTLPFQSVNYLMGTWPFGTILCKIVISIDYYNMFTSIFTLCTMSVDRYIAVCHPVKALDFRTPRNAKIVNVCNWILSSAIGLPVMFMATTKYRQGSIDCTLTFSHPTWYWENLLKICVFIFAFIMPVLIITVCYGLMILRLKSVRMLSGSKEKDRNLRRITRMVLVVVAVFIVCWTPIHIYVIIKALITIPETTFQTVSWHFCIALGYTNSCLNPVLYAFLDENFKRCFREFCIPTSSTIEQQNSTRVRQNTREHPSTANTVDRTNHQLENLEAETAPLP
Sequence of kappa opioid receptor (KOR) (P34975 whole entry): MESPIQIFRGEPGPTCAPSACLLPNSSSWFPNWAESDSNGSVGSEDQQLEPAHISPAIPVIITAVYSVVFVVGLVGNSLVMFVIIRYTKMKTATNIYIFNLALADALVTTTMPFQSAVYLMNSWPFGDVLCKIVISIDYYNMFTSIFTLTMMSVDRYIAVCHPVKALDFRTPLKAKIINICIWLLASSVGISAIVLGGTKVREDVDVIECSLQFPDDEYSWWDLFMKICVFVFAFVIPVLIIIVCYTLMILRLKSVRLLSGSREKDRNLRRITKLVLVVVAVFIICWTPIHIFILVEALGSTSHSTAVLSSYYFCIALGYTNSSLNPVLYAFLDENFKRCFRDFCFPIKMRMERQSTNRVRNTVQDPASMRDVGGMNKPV
T1 sequence (P34975 whole entry): as above

Compound: CC[C@H](C)[C@H](NC(=O)[C@H](CCCN=C(N)N)NC(=O)[C@H](CCCN=C(N)N)NC(=O)[C@H](CC(C)C)NC(=O)[C@H](Cc1ccccc1)NC(=O)CNC(=O)CNC(=O)[C@@H](N)Cc1ccc(O)cc1)C(=O)N[C@@H](CCCN=C(N)N)C(=O)N1CCC[C@H]1C(=O)N[C@@H](CCCCN)C(N)=O [Dyn A(1-11)NH2, reference compound]
- Ki ([1]; KOR Ki (nM ± SEM)): 2.6 ± 0.3 nM

Compound: CC(C)[C@@H](CN1CC[C@@](C)(c2cccc(O)c2)[C@@H](C)C1)NC(=O)[C@H]1Cc2ccc(O)cc2CN1 [JDTic, (3R)-7-hydroxy-N-[(2S)-1-[(3R,4R)-4-(3-hydroxyphenyl)-3,4-dimethylpiperidin-1-yl]-3-methylbutan-2-yl]-1,2,3,4-tetrahydroisoquinoline-3-carboxamide]
- duration of KOR antagonist activity (KOR [2]): lasting weeks after a single dose

Compound: N=C(N)NCCC[C@@H]1NC(=O)[C@H](CCCNC(=N)N)NC(=O)[C@H](NC(=O)[C@H](Cc2ccccc2)NC(=O)CNC(=O)CNC(=O)[C@H](Cc2ccc(O)cc2)NCc2ccccc2)CC(=O)NC[C@@H](C(=O)N[C@@H](CCCNC(=N)N)C(=O)N2CCC[C@H]2C(=O)N[C@@H](CCCCN)C(N)=O)NC1=O [Peptide 1, [N-benzyl-Tyr^1-cyclo(D-Asp^5,Dap^8)]dynorphin A(1-11)NH2]
- Ki ([1]; KOR Ki 95% confidence interval, n = 10): 30 to 160 nM
- Ki ([1]; KOR Ki (nM ± SEM)): 95.2 ± 28.8 nM
- Relative KOR affinity ([1]; compared to zyklophin (1.0)): 1.0
- stress-induced reinstatement of cocaine seeking behavior [3]: suppressed
- Ki (mu opioid receptor (MOR)): 4380 ± 560 nM

Compound: CC[C@H](C)[C@H](NC(=O)[C@H](CCCNC(=N)N)NC(=O)[C@H](CCCNC(=N)N)NC(=O)[C@@H](CC(N)=O)NC(=O)[C@H](Cc1ccccc1)NC(=O)CNC(=O)CNC(=O)[C@H](Cc1ccc(O)cc1)NCc1ccccc1)C(=O)N[C@@H](CCCNC(=N)N)C(=O)N1CCC[C@H]1C(=O)N[C@@H](CCCCN)C(N)=O [Peptide 2, NBn-Tyr^1-Gly-Gly-Phe-DAsn^5-Arg-Arg-Ile-Arg-Pro-Lys-NH2]
- fold lower KOR affinity compared to zyklophin [1]: 4 fold

Compound: CC(=O)NC[C@H](NC(=O)[C@H](CCCNC(=N)N)NC(=O)[C@H](CCCNC(=N)N)NC(=O)[C@H](CC(C)C)NC(=O)[C@H](Cc1ccccc1)NC(=O)CNC(=O)CNC(=O)[C@H](Cc1ccc(O)cc1)NCc1ccccc1)C(=O)N[C@@H](CCCNC(=N)N)C(=O)N1CCC[C@H]1C(=O)N[C@@H](CCCCN)C(N)=O [Peptide 3, NBn-Tyr^1-Gly-Gly-Phe-Leu-Arg-Arg-Dap(Ac)^8-Arg-Pro-Lys-NH2]
- Ki ratio, Ki (MOR)/Ki (KOR) [1]: 5
- Relative KOR affinity [1]: 3.3
- fold higher KOR affinity compared to zyklophin [1]: 3 fold
- Ki ([1]; KOR Ki (nM ± SEM)): 28 nM and 28.6 nM
- Ki (mu opioid receptor (MOR)): 157 ± 25 nM
- fold higher MOR affinity than zyklophin (mu opioid receptor (MOR)): 28 fold
- EC50 (KOR [4]): 39.5 ± 17.4 nM
- KOR efficacy in the GTPγS assay (KOR [4]; screened at 10 µM, compared to the full agonist Dyn A(1-13)NH2): 26%

Compound: Oc1ccc2c3c1O[C@H]1c4[nH]c5c(c4C[C@@]4(O)[C@@H](C2)N(CC2CC2)CC[C@]314)C[C@@]1(O)[C@H]2Cc3ccc(O)c4c3[C@@]1(CCN2CC1CC1)[C@H]5O4 [norBNI, nor-binaltorphimine, reference compound]
- Kb (KOR [5]): 0.074 nM
- duration of KOR antagonist activity (KOR [2]): lasting weeks after a single dose

Compound: [N-benzyl-Tyr^1,D-Asn^5,Dap(Ac)^8]Dyn A(1-11)NH2 (Bn-YGGF[dN]RR[Dap](Ac)RPK-NH2; not fully specified (residue 1))
- Ki (KOR [6]): 66.9 nM
